Values quoted from earlier work as cited in patent publication US7906537B2, “Substituted p-diaminobenzene derivatives” (priority 2003, dated 2011).

Legend:
[1] = tested on: animal models of ethanol withdrawal syndrome; conditions: in vivo
[2] = tested on: K(+) current in neuronal cells
epileptic patients = conditions: clinical trials
[3] = tested on: electrically induced seizures, seizures induced chemically by pentylenetetrazole, picrotoxin and NMDA, DBA/2 mouse; conditions: after oral and intraperitoneal administration in rats and mice
hippocampal kindling = conditions: rat
[4] = tested on: animal models of anxiety-like behaviour; conditions: in vivo
[5] = tested on: kainic acid-induced status epilepticus; conditions: following kainic acid-induced status epilepticus in the rat
[6] = tested on: animal models of neuropathic pain; conditions: in vivo
amygdala kindling model = conditions: in vivo

SMILES	effect in animal models of ethanol withdrawal syndrome [1]	activation of K(+) current [2]	incidence of seizures in epileptic patients (epileptic patients)	activity in a range of anticonvulsant tests [3]	progression of hippocampal kindling (hippocampal kindling)	activity in animal models of anxiety-like behaviour [4]	limbic neurodegeneration and expression of markers of apoptosis [5]	effect in animal models of neuropathic pain [6]	activity in the amygdala kindling model of complex partial seizures (amygdala kindling model)
NCC1(CC(=O)O)CCCCC1 [gabapentin]	very effective								
CCOC(=O)Nc1ccc(NCc2ccc(F)cc2)cc1N [Retigabine, N-(2-amino-4-(4-fluorobenzylamino)-phenyl)carbamic acid ethyl ester]		activate a K(+) current	effectiveness in reducing the incidence of seizures	active	delay the progression of hippocampal kindling	active	prevent limbic neurodegeneration and the expression of markers of apoptosis	beneficial	active
